Measurements taken from ChEMBL document CHEMBL4190260, “Antibiofilm potential of 16-oxo-cleroda-3, 13(14) E-diene-15 oic acid and its five new γ-amino γ-lactone derivatives against methicillin resistant Staphylococcus aureus and Streptococcus mutans” (2017).
In brackets after ≈: the same amount, converted by molar mass. One block for each compound: values may come before it. Activity calls are given as the source filed them. No cut-off for these calls is given here.

Experiments:
[1] = system: Streptococcus mutans; assay: Antibacterial activity against Streptococcus mutans ATCC 25175 measured after overnight incubation by two-fold serial dilution method; type: functional
[2] = system: Staphylococcus aureus; assay: Antibacterial activity against methicillin-resistant Staphylococcus aureus ATCC 43300 measured after overnight incubation by two-fold serial dilution method; type: functional
[3] = system: Staphylococcus aureus; assay: Antibacterial activity against methicillin-resistant Staphylococcus aureus ATCC 43300 assessed as time delay in bacterial growth at 2 times MIC after 10 mins; type: functional
[4] = system: Klebsiella pneumoniae; assay: Antibacterial activity against Klebsiella pneumoniae ATCC 13882 measured after overnight incubation by two-fold serial dilution method; type: functional
[5] = system: Streptococcus mutans; assay: Potency index, ratio of cefixime MIC to test compound MIC for Streptococcus mutans ATCC 25175; type: functional
[6] = system: Streptococcus mutans; assay: Antibiofilm activity against Streptococcus mutans ATCC 25175 measured after overnight incubation by crystal violet-staining based assay; type: functional
[7] = system: Staphylococcus aureus; assay: Antibacterial activity against methicillin-resistant Staphylococcus aureus ATCC 43300 assessed as inhibition of colony formation at 5 to 20 ug/ml measured after 24 hrs; type: functional, organism-based
[8] = system: Staphylococcus aureus; assay: Antibiofilm activity against methicillin-resistant Staphylococcus aureus ATCC 43300 assessed as disruption of biofilm at 10 to 12 ug/ml by fluorescence microscopy; type: functional, organism-based
[9] = system: Staphylococcus aureus; assay: Antibacterial activity against methicillin-resistant Staphylococcus aureus ATCC 43300 assessed as log reduction in bacterial count at 5 ug/ml measured after 24 hrs; type: functional
[10] = system: Staphylococcus aureus; assay: Bactericidal activity against methicillin-resistant Staphylococcus aureus ATCC 43300 measured after overnight incubation; type: functional
[11] = system: Streptococcus mutans; assay: Antibiofilm activity against Streptococcus mutans ATCC 25175 assessed as down-regulation of gtfB gene expression by semi-quantitative PCR analysis; type: functional, organism-based
[12] = system: Staphylococcus aureus; assay: Antibacterial activity against methicillin-resistant Staphylococcus aureus ATCC 43300 assessed as time delay in bacterial growth at MIC after 10 mins; type: functional
[13] = system: Staphylococcus aureus; assay: Antibacterial activity against methicillin-resistant Staphylococcus aureus ATCC 43300 assessed as delay in bacterial growth at 4 times MIC after 10 mins; type: functional, organism-based
[14] = system: Streptococcus mutans; assay: Potency index, ratio of 6 amino penicillinic acid MIC to test compound MIC for Streptococcus mutans ATCC 25175; type: functional
[15] = system: Staphylococcus aureus; assay: Antibacterial activity against methicillin-resistant Staphylococcus aureus ATCC 43300 assessed as reduction in bacterial viability at 5 to 20 ug/ml measured after 24 hrs by MTT assay; type: functional
[16] = system: Streptococcus mutans; assay: Antibacterial activity against Streptococcus mutans ATCC 25175 assessed as time delay in bacterial growth at MIC, 2 times MIC and 4 times MIC; type: functional
[17] = system: Staphylococcus aureus; assay: Antibiofilm activity against methicillin-resistant Staphylococcus aureus ATCC 43300 assessed as down-regulation of IcaA gene expression by semi-quantitative PCR analysis; type: functional, organism-based
[18] = system: Streptococcus mutans; assay: Antibacterial activity against Streptococcus mutans ATCC 25175 measured assessed as reduction in bacterial viability at 5 to 15 ug/ml after 24 hrs by MTT assay; type: functional
[19] = system: Staphylococcus aureus; assay: Bacteriostatic activity against methicillin-resistant Staphylococcus aureus ATCC 43300 assessed as log reduction in colony forming units at 12.5 to 15 ug/ml after 24 hrs; type: functional, organism-based
[20] = system: Staphylococcus aureus; assay: Potency index, ratio of gentamycin sulphate MIC to test compound MIC for methicillin-resistant Staphylococcus aureus ATCC 43300; type: functional
[21] = system: Streptococcus mutans; assay: Bactericidal activity against Streptococcus mutans ATCC 25175 measured after overnight incubation; type: functional
[22] = system: Streptococcus mutans; assay: Antibacterial activity against Streptococcus mutans ATCC 25175 assessed as log reduction in bacterial count at 10 ug/ml measured after 24 hrs relative to control; type: functional
[23] = system: Staphylococcus aureus; assay: Potency index, ratio of 6 amino penicillinic acid MIC to test compound MIC for methicillin-resistant Staphylococcus aureus ATCC 43300; type: functional
[24] = system: Staphylococcus aureus; assay: Antibiofilm activity against methicillin-resistant Staphylococcus aureus ATCC 43300 assessed as formation of oviod cells at MBIC concentration by uranyl acetate-staining based electron microscopy; type: functional, organism-based
[25] = system: Streptococcus mutans; assay: Antibiofilm activity against Streptococcus mutans ATCC 25175 assessed as disruption of biofilm at 10 to 12 ug/ml by fluorescence microscopy; type: functional, organism-based
[26] = system: Staphylococcus aureus; assay: Antibiofilm activity against methicillin-resistant Staphylococcus aureus ATCC 43300 assessed as formation of broken chains at MBIC concentration by uranyl acetate-staining based electron microscopy; type: functional, organism-based
[27] = system: Staphylococcus aureus; assay: Antibacterial activity against methicillin-resistant Staphylococcus aureus ATCC 43300 assessed as reduction in acid production at 0.5 times MIC and MIC measured up to 24 hrs; type: functional, organism-based
[28] = system: Staphylococcus aureus; assay: Potency index, ratio of cefixime MIC to test compound MIC for methicillin-resistant Staphylococcus aureus ATCC 43300; type: functional
[29] = system: Streptococcus mutans; assay: Antibiofilm activity against Streptococcus mutans ATCC 25175 assessed as down-regulation of gtfC gene expression by semi-quantitative PCR analysis; type: functional, organism-based
[30] = system: Streptococcus mutans; assay: Bacteriostatic activity against Streptococcus mutans ATCC 25175 assessed as log reduction in colony forming units at 7.5 to 10 ug/ml after 24 hrs; type: functional, organism-based
[31] = system: Streptococcus mutans; assay: Antibacterial activity against Streptococcus mutans ATCC 25175 assessed as reduction in acid production at 0.5 times MIC and MIC measured up to 24 hrs; type: functional, organism-based
[32] = system: Streptococcus mutans; assay: Antibacterial activity against Streptococcus mutans ATCC 25175 measured assessed as inhibition of colony formation at 5 to 15 ug/ml after 24 hrs; type: functional, organism-based
[33] = system: Streptococcus mutans; assay: Antibiofilm activity against Streptococcus mutans ATCC 25175 assessed as down-regulation of luxS gene expression by semi-quantitative PCR analysis; type: functional, organism-based
[34] = system: Staphylococcus aureus; assay: Antibiofilm activity against methicillin-resistant Staphylococcus aureus ATCC 43300 measured after overnight incubation by crystal violet-staining based assay; type: functional
[35] = system: Proteus mirabilis; assay: Antibacterial activity against Proteus mirabilis ATCC 12453 measured after overnight incubation by two-fold serial dilution method; type: functional
[36] = system: Proteus mirabilis; assay: Antibiofilm activity against Proteus mirabilis ATCC 12453 measured after overnight incubation by crystal violet-staining based assay; type: functional
[37] = system: Proteus mirabilis; assay: Antibiofilm activity against Proteus mirabilis ATCC 12453 at >= 50 ug/ml measured after overnight incubation by crystal violet-staining based assay; type: functional, organism-based
[38] = system: Klebsiella pneumoniae; assay: Antibiofilm activity against Klebsiella pneumoniae ATCC 13882 at >= 50 ug/ml measured after overnight incubation by crystal violet-staining based assay; type: functional, organism-based
[39] = system: Klebsiella pneumoniae; assay: Antibiofilm activity against Klebsiella pneumoniae ATCC 13882 measured after overnight incubation by crystal violet-staining based assay; type: functional

Structure (SMILES): CC1=CCC[C@@H]2[C@@](C)(CCC3=CC(=O)OC3Nc3ccccc3)[C@H](C)CC[C@@]12C (mixture of isomers)
- MIC [1]: 15 µg/mL
- MIC [2]: 10 µg/mL
- Time [3]: 1 to 2 h
- MIC [4]: inactive
- Ratio [5]: 5
- Activity [6]: 95.88%
- MBIC [6]: 15 µg/mL
- Activity [7]: Active
- Activity [8]: Active
- Activity [9]: 9.5 log10CFU/ml
- MBC [10]: inactive
- Activity [11]: Active
- Time [12]: 1 to 2 h
- Activity [13]: Active
- Ratio [14]: 5
- Activity [15]: <=90%
- Time [16]: >=8 hr
- Activity [17]: inactive
- Activity [18]: <=90%
- Activity [19]: Active
- Ratio [20]: 5
- MBC [21]: inactive
- Activity [22]: 7.5 - 8 log10CFU/ml
- Ratio [23]: 5
- Activity [24]: Active
- Activity [25]: Active
- Activity [26]: Active
- Activity [27]: Active
- Ratio [28]: 5
- Activity [29]: Active
- Activity [30]: Active
- Activity [31]: Active
- Activity [32]: Active
- Activity [33]: Active
- Activity [34]: 96.9%
- MBIC [34]: 10 µg/mL

Structure (SMILES): CC1=CCC[C@@H]2[C@@](C)(CCC3=CC(=O)OC3Nc3ccccc3F)[C@H](C)CC[C@@]12C (mixture of isomers)
- MIC [1]: 50 µg/mL
- MIC [2]: 45 µg/mL
- MIC [4]: inactive
- Activity [6]: 69.05%
- MBIC [6]: 45 µg/mL
- MIC [35]: 125 µg/mL
- Activity [36]: 62.5%
- MBIC [36]: 90 µg/mL
- Activity [37]: Active
- Activity [38]: Active
- Activity [34]: 76.25%

- MIC [1]: inactive
Structure (SMILES): CC1=CCC[C@@H]2[C@@](C)(CCC3=CC(=O)OC3Nc3ccc(-c4ccc(NC5OC(=O)C=C5CC[C@@]5(C)[C@H](C)CC[C@@]6(C)C(C)=CCC[C@H]56)c(C)c4)cc3C)[C@H](C)CC[C@@]12C (mixture of isomers)

- MIC [1]: inactive
Structure (SMILES): CC1=CCC[C@@H]2[C@@](C)(CCC3=CC(=O)OC3Nc3ccc(F)cc3)[C@H](C)CC[C@@]12C (mixture of isomers)

Structure (SMILES): C=CC1=C(C(=O)O)N2C(=O)[C@@H](NC(=O)/C(=N\OCC(=O)O)c3csc(N)n3)[C@H]2SC1 [CEFIXIME]
- MIC [1]: 40 µg/mL (≈ 88.2 µM)
- MIC [2]: 82 µg/mL (≈ 181 µM)
- Activity [39]: 94.78%
- MBIC [39]: 40 µg/mL
- MIC [4]: 40 µg/mL (≈ 88.2 µM)
- Activity [6]: 96.06%
- MBIC [6]: 40 µg/mL
- MIC [35]: 40 µg/mL (≈ 88.2 µM)
- Activity [36]: 72.6%
- MBIC [36]: 40 µg/mL
- Activity [34]: 73.5%
- MBIC [34]: 82 µg/mL
